Assay results taken from patent US8674095B2, “Compounds for treating neuropsychiatric conditions” (Afraxis Holdings, Inc., priority 2008, dated 2014).

How the values were obtained:
Type in all cases: biochemical
PAK2 = PAK2 (Homo sapiens, UniProt Q13177); assay: Z'Lyte fluorescence-based (FRET) kinase assay, PAK2; conditions: 75 μM ATP (Km apparent), 1 hr room temperature, 1% DMSO
Method: (§1) A fluorescence-based assay format is used to determine IC50 values of test compounds in vitro. Purified PAK kinase is incubated with ATP, and a test compound at various concentrations and a substrate peptide containing two fluorophores. In a second step, the reaction mix is incubated with a site-specific protease that cleaves non-phosphorylated but not phosphorylated substrate peptide, disrupting the FRET signal generated by the two fluorophores in the cleaved peptide (Z′Lyte™ Kinase assay platform; Life Technologies).
(§2) Reagents: 50 mM HEPES, pH 7.5; 0.01% BRIJ-35; 10 mM MgCl2; 1 mM EGTA, 2 uM substrate peptide Ser/Thr20 (proprietary Life Technologies Sequence), PAK enzyme [2.42-30.8 ng for PAK1, 0.29-6 ng for PAK2, 1.5-20 ng for PAK3 and 0.1-0.86 ng for PAK4; actual enzyme amounts depend on lot activity of the enzyme preparation]
(§3) Test compounds are dissolved in DMSO at various concentrations; the final DMSO concentration in the assay reaction is 1%.
(§4) ATP concentration at Km apparent is used in the assay [50 μM ATP for PAK1 assay, 75 μM ATP for PAK2 assay, 100 μM ATP for PAK3 assay, 5 μM ATP for PAK-4 assay] in a total assay volume of […] Assay reactions are incubated at room temperature for 1 hr. Following the kinase reaction, 5 μl of 1:256 dilution of development solution A (Life Technologies) is added and the reaction mix is incubated for an additional 1 hr at room temperature.
(§5) Plates are analyzed in a standard fluorescence plate reader (Tecan or equivalent) using an excitation wavelength of 400 nm and emission wavelengths of 445 nm and 520 nm. Inhibition of kinase reaction is determined by emission ratio=emission@445 nm/emission@520 nm

PAK1, PAK2, PAK3, PAK-4 = assay: PAK isoform inhibition profile of example compounds; conditions: classification of example compounds in the description; underlying IC50 data in Table 8
From the text: In some embodiments, the PAK inhibitor is a Group I PAK inhibitor that inhibits, for example, one or more Group I PAK polypeptides, for example, PAK1, PAK2, and/or PAK3. […] In some embodiments, the PAK inhibitor is a PAK2 inhibitor. In some embodiments, the PAK inhibitor is a PAK3 inhibitor. In some embodiments, the PAK inhibitor is a mixed PAK1/PAK3 inhibitor. […] In some embodiments, the PAK inhibitor is a Group II PAK inhibitor that inhibits one or more Group II PAK polypeptides, for example PAK-4, PAK5, and/or PAK6. In some embodiments, the PAK inhibitor is a PAK4 inhibitor. In some embodiments, the PAK inhibitor is a PAK5 inhibitor. In some embodiments, the PAK inhibitor is a PAK6 inhibitor.
as §1, §2, §3, §4, §5

PAK1 = PAK1 (Homo sapiens, UniProt Q13153); assay: Z'Lyte fluorescence-based (FRET) kinase assay, PAK1; conditions: 50 μM ATP (Km apparent), 1 hr room temperature, 1% DMSO
PAK1, sequence (Q13153 whole entry): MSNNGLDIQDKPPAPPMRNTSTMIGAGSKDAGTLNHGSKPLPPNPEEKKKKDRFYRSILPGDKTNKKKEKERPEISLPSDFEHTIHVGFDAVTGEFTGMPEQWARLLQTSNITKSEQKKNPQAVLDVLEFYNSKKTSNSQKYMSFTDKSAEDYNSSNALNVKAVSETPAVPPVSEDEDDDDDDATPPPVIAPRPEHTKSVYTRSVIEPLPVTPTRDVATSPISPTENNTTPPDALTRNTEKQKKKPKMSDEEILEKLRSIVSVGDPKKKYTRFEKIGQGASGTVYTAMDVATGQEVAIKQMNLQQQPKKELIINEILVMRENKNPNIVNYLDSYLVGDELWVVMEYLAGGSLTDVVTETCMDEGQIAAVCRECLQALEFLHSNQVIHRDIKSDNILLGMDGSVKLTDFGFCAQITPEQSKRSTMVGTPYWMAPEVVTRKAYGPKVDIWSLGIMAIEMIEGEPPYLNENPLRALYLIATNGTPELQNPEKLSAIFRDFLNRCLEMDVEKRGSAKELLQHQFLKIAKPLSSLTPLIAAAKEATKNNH
Method: as §1, §2, §3, §4, §5

PAK3 = PAK3 (Homo sapiens, UniProt O75914); assay: Z'Lyte fluorescence-based (FRET) kinase assay, PAK3; conditions: 100 μM ATP (Km apparent), 1 hr room temperature, 1% DMSO
PAK3, sequence (O75914 whole entry): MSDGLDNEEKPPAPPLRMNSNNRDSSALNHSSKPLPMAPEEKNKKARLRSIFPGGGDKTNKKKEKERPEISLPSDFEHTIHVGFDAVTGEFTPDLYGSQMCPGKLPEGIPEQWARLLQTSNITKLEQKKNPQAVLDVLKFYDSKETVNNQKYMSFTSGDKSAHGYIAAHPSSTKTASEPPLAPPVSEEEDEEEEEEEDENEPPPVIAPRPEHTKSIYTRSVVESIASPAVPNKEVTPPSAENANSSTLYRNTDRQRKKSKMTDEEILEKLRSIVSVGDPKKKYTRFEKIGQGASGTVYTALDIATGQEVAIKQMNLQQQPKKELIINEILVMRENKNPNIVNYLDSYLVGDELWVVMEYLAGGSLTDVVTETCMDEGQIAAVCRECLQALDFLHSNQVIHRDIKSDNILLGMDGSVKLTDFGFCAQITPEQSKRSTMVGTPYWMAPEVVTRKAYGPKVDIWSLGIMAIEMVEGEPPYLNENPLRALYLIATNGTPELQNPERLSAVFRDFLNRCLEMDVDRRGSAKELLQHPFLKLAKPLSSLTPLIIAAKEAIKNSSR
Method: as §1, §2, §3, §4, §5

PAK4 = PAK4 (Homo sapiens, UniProt O96013); assay: Z'Lyte fluorescence-based (FRET) kinase assay, PAK4; conditions: 5 μM ATP (Km apparent), 1 hr room temperature, 1% DMSO
PAK4, sequence (O96013 whole entry): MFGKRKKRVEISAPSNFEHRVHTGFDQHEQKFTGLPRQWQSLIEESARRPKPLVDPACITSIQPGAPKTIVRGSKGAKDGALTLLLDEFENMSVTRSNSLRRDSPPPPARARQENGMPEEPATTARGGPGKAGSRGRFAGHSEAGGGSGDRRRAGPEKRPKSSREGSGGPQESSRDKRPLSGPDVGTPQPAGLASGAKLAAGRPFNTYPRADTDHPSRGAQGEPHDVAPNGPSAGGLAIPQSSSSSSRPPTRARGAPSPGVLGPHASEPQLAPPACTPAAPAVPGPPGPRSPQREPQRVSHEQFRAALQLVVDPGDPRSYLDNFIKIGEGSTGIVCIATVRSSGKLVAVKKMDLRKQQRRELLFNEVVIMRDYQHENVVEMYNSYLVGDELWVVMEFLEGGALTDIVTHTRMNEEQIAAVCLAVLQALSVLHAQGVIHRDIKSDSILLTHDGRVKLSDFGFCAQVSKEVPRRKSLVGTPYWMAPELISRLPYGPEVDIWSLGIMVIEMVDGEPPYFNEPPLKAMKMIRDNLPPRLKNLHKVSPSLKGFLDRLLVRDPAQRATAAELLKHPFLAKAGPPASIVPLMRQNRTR
Method: as §1, §2, §3, §4, §5

PAK2, sequence (Q13177 whole entry): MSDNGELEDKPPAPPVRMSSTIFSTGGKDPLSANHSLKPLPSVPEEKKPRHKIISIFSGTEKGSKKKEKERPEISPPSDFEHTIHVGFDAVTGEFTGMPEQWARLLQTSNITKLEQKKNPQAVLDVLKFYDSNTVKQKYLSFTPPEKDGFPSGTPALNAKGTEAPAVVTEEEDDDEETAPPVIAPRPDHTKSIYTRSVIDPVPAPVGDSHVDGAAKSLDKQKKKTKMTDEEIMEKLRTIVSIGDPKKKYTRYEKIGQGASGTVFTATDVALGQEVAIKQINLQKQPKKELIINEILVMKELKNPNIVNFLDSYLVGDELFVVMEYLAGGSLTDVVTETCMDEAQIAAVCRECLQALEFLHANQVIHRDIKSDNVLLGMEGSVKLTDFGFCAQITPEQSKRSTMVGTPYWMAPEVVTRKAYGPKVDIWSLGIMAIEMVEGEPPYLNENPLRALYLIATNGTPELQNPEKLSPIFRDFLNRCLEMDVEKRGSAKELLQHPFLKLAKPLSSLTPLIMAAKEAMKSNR

IC50 (PAK2) | IC50 (PAK1) | IC50 (PAK3) | IC50 (PAK4) | Structure (SMILES) | PAK inhibitor type (isoform profile) (PAK1, PAK2, PAK3, PAK-4)
1 to 10 µM |  |  |  | Cc1cc(Nc2nccc(-c3ccc(NCCN)nc3)n2)ccc1N1CCN(C)CC1 [Compound 106] | mixed PAK1/PAK-4 inhibitor
> 10 µM | 1 to 10 µM | > 10 µM | 1 to 10 µM | COc1cccc2c1C(n1c(=O)ccc3cnc(Nc4ccc(N5CCN(C)CC5)cc4)nc31)CC2 (centres unmarked) [Compound 1, 8-(7-methoxy-2,3-dihydro-1H-inden-1-yl)-2-(4-(4-methylpiperazin-1-yl)phenylamino)pyrido[2,3-d]pyrimidin-7(8H)-one] | 
 |  |  |  | COc1ccccc1Cn1c(=O)ccc2cnc(Nc3ccc(N4CCN(C)CC4)cc3)nc21 [Compound 36] | PAK1 inhibitor
1 to 10 µM | 1 to 10 µM | > 10 µM | 1 to 10 µM | CN1CCN(c2ccc(Nc3nccc(-c4ccc(N)nc4)n3)cc2)CC1 [Compound 108] | 
 |  |  |  | CN1CCN(c2ccc(Nc3ncc4ccc(=O)n(C5Cc6ccccc6C5)c4n3)cc2)CC1 [Compound 18] | mixed PAK1/PAK-4 inhibitor
> 10 µM | 1 to 10 µM |  | 1 to 10 µM | CN1CCN(c2ccc(Nc3nccc(-c4ccc(NCCN5CCOCC5)nc4)n3)cc2)CC1 [Compound 99] | 
> 10 µM | 1 to 10 µM | > 10 µM | 1 to 10 µM | CN1CCN(c2ccc(Nc3ncc4ccc(=O)n(Cc5c(Cl)cccc5-c5ccccc5)c4n3)cc2)CC1 [Compound 82] | 
> 10 µM | 1 to 10 µM |  | > 10 µM | CN(C)CCOc1ccc(-c2ccnc(Nc3ccc(N4CCN(C)CC4)cc3)n2)cn1 [Compound 102] | 
1 to 10 µM | < 1 µM | 1 to 10 µM | < 1 µM | Cc1cccc(Cl)c1Cn1c(=O)ccc2cnc(Nc3ccc(N4CCN(C)CC4)cc3)nc21 [Compound 67] | 
 |  |  |  | CN1CCN(c2ccc(Nc3ncc4ccc(=O)n(Cc5ccccc5OC(F)F)c4n3)cc2)CC1 [Compound 46] | mixed PAK1/PAK2/PAK3/PAK-4 inhibitor
1 to 10 µM | < 1 µM |  | 1 to 10 µM | CN1CCN(c2ccc(Nc3nccc(-c4ccc(NCCCN)nc4)n3)cc2)CC1 [Compound 98] | PAK1 inhibitor
 |  |  |  | CN1CCN(c2ccc(Nc3ncc4ccc(=O)n(C5CCCC5)c4n3)cc2)CC1 [Compound 2] | PAK1 inhibitor
 |  |  |  | CN1CCN(c2ccc(Nc3ncc4ccc(=O)n(CCc5ccccc5)c4n3)cc2)CC1 [Compound 51] | mixed PAK1/PAK2/PAK-4 inhibitor
1 to 10 µM | < 1 µM | 1 to 10 µM | < 1 µM | COc1cc(Nc2nccc(-c3ccc(NCCN)nc3)n2)cc(OC)c1OC [Compound 95] | 
 |  |  |  | CN1CCN(c2ccc(Nc3ncc4ccc(=O)n(C5CCc6ccccc65)c4n3)cc2)CC1 (centres unmarked) [Compound 7] | PAK1 inhibitor
< 1 µM |  |  |  | CSc1cccc(F)c1Cn1c(=O)ccc2cnc(Nc3ccc(N4CCN(C)CC4)cc3)nc21 [Compound 91, 8-(2-fluoro-6-(methylthio)benzyl)-2-(4-(4-methylpiperazin-1-yl)phenylamino)pyrido[2,3-d]pyrimidin-7(8H)-one] | mixed PAK1/PAK2/PAK3/PAK-4 inhibitor
 |  |  |  | O=c1ccc2cnc(Nc3ccc(N4CCNCC4)c(F)c3)nc2n1C1Cc2ccccc2C1 [Compound 22] | mixed PAK1/PAK2/PAK-4 inhibitor
 |  |  |  | CN1CCN(c2ccc(Nc3ncc4ccc(=O)n(Cc5ccccc5Cl)c4n3)cc2)CC1 [Compound 33] | mixed PAK1/PAK2 inhibitor
> 10 µM | > 10 µM |  | > 10 µM | CN1CCN(c2ccc(N(C)c3nccc(-c4ccc(NCCN)nc4)n3)cc2)CC1 [Compound 114] | 
> 10 µM | 1 to 10 µM |  | > 10 µM | CN1CCN(c2ccc(Nc3nccc(-c4ccc(Cl)nc4)n3)cc2)CC1 [Compound 97] | 
 |  |  |  | CN1CCN(c2ccc(Nc3ncc4ccc(=O)n(C5CCC(C)(C)c6ccccc65)c4n3)cc2)CC1 (centres unmarked) [Compound 21] | mixed PAK1/PAK2 inhibitor

IC50 (PAK2) | IC50 (PAK1) | IC50 (PAK3) | IC50 (PAK4) | Structure (SMILES) | PAK inhibitor type (isoform profile) (PAK1, PAK2, PAK3, PAK-4)
> 10 µM | 1 to 10 µM |  | > 10 µM | CN1CCN(CCNc2ccc(-c3ccnc(Nc4ccc(N5CCN(C)CC5)cc4)n3)cn2)CC1 [Compound 103] | 
 |  |  |  | COc1ccc(F)cc1Cn1c(=O)ccc2cnc(Nc3ccc(N4CCN(C)CC4)cc3)nc21 [Compound 56] | PAK1 inhibitor
 |  |  |  | O=c1ccc2cnc(Nc3ccc(OC4CCCNC4)cc3)nc2n1Cc1ccccc1C(F)(F)F (centres unmarked) [Compound 15] | mixed PAK1/PAK2/PAK3/PAK-4 inhibitor
 |  |  |  | CN1CCN(c2ccc(Nc3ncc4ccc(=O)n(Cc5ccccc5C(F)(F)F)c4n3)cc2)CC1 [Compound 44] | mixed PAK1/PAK2/PAK3/PAK-4 inhibitor
< 1 µM |  |  |  | CN1CCN(c2ccc(Nc3ncc4ccc(=O)n(Cc5c(F)cccc5C(F)(F)F)c4n3)cc2)CC1 [Compound 60] | mixed PAK1/PAK2/PAK3/PAK-4 inhibitor
 |  |  |  | O=c1ccc2cnc(Nc3ccc(N4CCNCC4)c(F)c3)nc2n1C1CCc2ccccc2C1 (centres unmarked) [Compound 23] | mixed PAK1/PAK2/PAK3/PAK-4 inhibitor
 |  |  |  | CCOc1ccccc1Cn1c(=O)ccc2cnc(Nc3ccc(N4CCN(C)CC4)cc3)nc21 [Compound 64] | inhibits all three Group I PAK isoforms (PAK1, 2 and PAK3) with equal or similar potency
1 to 10 µM | 1 to 10 µM |  | 1 to 10 µM | CN(C)CCNc1ccc(-c2ccnc(Nc3ccc(N4CCN(C)CC4)cc3)n2)cn1 [Compound 101] | 
 |  |  |  | CN1CCN(c2ccc(Nc3ncc4ccc(=O)n(Cc5ccccc5SC(F)(F)F)c4n3)cc2)CC1 [Compound 45] | mixed PAK1/PAK2/PAK3/PAK-4 inhibitor
 |  |  |  | CN(c1ccc(Nc2ncc3ccc(=O)n(Cc4ccccc4C(F)(F)F)c3n2)cc1)C1CCCNC1 (centres unmarked) [Compound 14] | mixed PAK1/PAK2/PAK3/PAK-4 inhibitor
 |  |  |  | CN1CCCC(Nc2ccc(Nc3ncc4ccc(=O)n(Cc5ccccc5C(F)(F)F)c4n3)cc2)C1 (centres unmarked) [Compound 63] | mixed PAK1/PAK2/PAK3/PAK-4 inhibitor
 |  |  |  | CN1CCN(c2ccc(Nc3ncc4ccc(=O)n(Cc5ccccc5-n5cccn5)c4n3)cc2)CC1 [Compound 55] | PAK1 inhibitor
< 1 µM |  |  |  | O=c1ccc2cnc(Nc3ccc(N4CCNCC4)c(F)c3)nc2n1Cc1c(Cl)cccc1C1CC1 [Compound 86] | inhibits all three Group I PAK isoforms (PAK1, 2 and PAK3) with equal or similar potency
1 to 10 µM | 1 to 10 µM |  | 1 to 10 µM | CN(C)CCOc1ccc(Nc2nccc(-c3ccc(NCCN)nc3)n2)cc1 [Compound 96] | 
1 to 10 µM | 1 to 10 µM |  | 1 to 10 µM | CCCNc1ccc(-c2ccnc(Nc3ccc(N4CCN(C)CC4)cc3)n2)cn1 [Compound 105] | 
< 1 µM |  |  |  | O=c1c(-c2ccccc2)cc2cnc(Nc3ccc(N4CCNCC4)cc3)nc2n1Cc1ccccc1C(F)(F)F [Compound 120] | inhibits all three Group I PAK isoforms (PAK1, 2 and PAK3) with equal or similar potency
 |  |  |  | CN1CCN(c2ccc(Nc3ncc4ccc(=O)n(Cc5ccccc5OC(F)(F)F)c4n3)cc2)CC1 [Compound 43] | mixed PAK1/PAK2 inhibitor
 |  |  |  | O=c1ccc2cnc(Nc3ccc(OC4CCNCC4)cc3)nc2n1Cc1ccccc1C(F)(F)F [Compound 13] | mixed PAK1/PAK2/PAK3/PAK-4 inhibitor
 |  |  |  | CN1CCN(c2ccc(Nc3ncc4ccc(=O)n(C5CCc6ccccc6C5)c4n3)cc2)CC1 (centres unmarked) [Compound 19] | mixed PAK1/PAK2/PAK3/PAK-4 inhibitor
 |  |  |  | O=c1c(-c2ccccc2)cc2cnc(Nc3ccc(NC4CCCNC4)cc3)nc2n1Cc1ccccc1C(F)(F)F (centres unmarked) [Compound 121] | inhibits all three Group I PAK isoforms (PAK1, 2 and PAK3) with equal or similar potency
> 10 µM | 1 to 10 µM |  | > 10 µM | CN1CCN(c2ccc(Nc3ncc4ccc(=O)n(Cc5cccc(Cl)c5)c4n3)cc2)CC1 [Compound 34] | 
